Data as given in patent US11358971B2, “Prodrugs of modulators of the NMDA receptor” (H. Lundbeck A/S, priority 2019, dated 2022).

Test system: not listed separately
Assay: MDR1-MDCKII permeability assay Papp(AB)
Type: in vitro ADME
Details: dog, MDCK-MDR1, parent compounds, A to B, 60-minute incubation at 37° C., pH 7.4
Method: (§1) MDR1-MDCKII Permeability Assay Papp(AB)
(§2) MDR1-MDCKII cells (obtained from Piet Borst at the Netherlands Cancer Institute) were seeded onto […] (PET) in 96-well BD insert systems at 2.5×10^5 cells/mL until to 4-7 days for confluent cell monolayer formation.
(§3) Test compounds were diluted with the transport buffer (HBSS with 10 mM HEPES, added 1% BSA, pH 7.4) from DMSO stock solution to a concentration of 0.5 μM (DMSO: 0.4%) and applied to the apical or basolateral side of the cell monolayer. Permeation of the test compounds from A to B direction or B to A direction was determined in triplicate over a 60-minute incubation at 37° C. and 5% CO2 with a relative humidity of 95%. In addition, the efflux ratio of each compound was also determined. Test and reference compounds were quantified by LC/MS/MS analysis based on the peak area ratio of analyte/IS.
(§4) Reference compounds: Fenoterol (conc: 2 μM) was used as low permeability marker and Propranolol (conc: 2 μM) was used as high permeability marker in A to B Permeability, furthermore was bi-directional permeability of a P-glycoprotein substrate (digoxin) included.
(§5) The apparent permeability coefficient Papp (cm/s) was calculated using the equation: Papp=(dCr/dt)×Vr/(A×C0) (1) Where dCr/dt is the cumulative concentration of compound in the receiver chamber as a function of time (μM/s); Vr is the solution volume in the receiver chamber (0.05 mL on the apical side; 0.25 mL on the basolateral side); A is the surface area for the transport, i.e. 0.0804 cm^2 for the area of the monolayer; C0 is the initial concentration in the donor chamber (μM).
(§6) The efflux was calculated using the equation: Efflux ratio=Papp(BA)/Papp(AB) (2)
(§7) The mass balance (Recovery) was calculated. The mass balance is defined as: the sum of the compound recovered from the acceptor chamber and the compound remaining in the donor chamber at the end of the experiment, divided by the initial donor amount. The mass balance should be as high as possible. Criterion: Recovery <50% is insufficient.
(§8) To evaluate the integrity of the cell monolayer, Lucifer Yellow permeability was measured in one direction (A to B). The percentage of Lucifer Yellow was calculated in control wells as an estimation of the overall cell membrane integrity. The wells are considered fully acceptable if % Lucifer Yellow is less than 2%.
(§9) The experiments for the prodrugs were the same as for the parent compounds exemplified in Table 3a.

Papp A→B at 60 min, 0.5 µM | SMILES
1.03 ×10⁻⁶ cm/s | N[C@H](CNC(=O)c1cc2nccc(C(F)(F)F)c2s1)C(=O)O [Compound 1f, (R)-2-amino-3-(7-(trifluoromethyl)thieno[3,2-b]pyridine-2-carboxamido) propanoic acid]
0.47 ×10⁻⁶ cm/s | Cc1cnc2cc(C(=O)NC[C@@H](N)C(=O)O)sc2c1C [Compound 1l, (R)-2-amino-3-(6,7-dimethylthieno[3,2-b]pyridine-2-carboxamido)propanoic acid]

Same assay, conditions: dog, MDCK-MDR1, prodrug compounds, A to B, 60-minute incubation at 37° C., pH 7.4

SMILES | Papp A→B at 60 min, 0.5 µM
CCCOC(=O)[C@H](N)CNC(=O)c1cc2nccc(C)c2s1 [Compound 2e, Propyl (R)-2-amino-3-(7-methylthieno[3,2-b]pyridine-2-carboxamido)propanoate] | 10.3 ×10⁻⁶ cm/s
COC(=O)[C@H](N)CNC(=O)c1cc2nccc(C3CC3)c2s1 [Compound 2b, Methyl (R)-2-amino-3-(7-cyclopropylthieno[3,2-b]pyridine-2-carboxamido) propanoate] | 9.25 ×10⁻⁶ cm/s
Cc1ccnc2cc(C(=O)NC[C@@H](N)C(=O)OCC3CC3)sc12 [Compound 2j, Cyclopropylmethyl (R)-2-amino-3-(7-methylthieno[3,2-b]pyridine-2-carboxamido)propanoate] | 11.9 ×10⁻⁶ cm/s
CCCCOC(=O)[C@H](N)CNC(=O)c1cc2nccc(C)c2s1 [Compound 2h, Butyl (R)-2-amino-3-(7-methylthieno[3,2-b]pyridine-2-carboxamido)propanoate] | 6.11 ×10⁻⁶ cm/s
Cc1ccnc2cc(C(=O)NC[C@@H](N)C(=O)OC3CCCCC3)sc12 [Compound 2n, Cyclohexyl (R)-2-amino-3-(7-methylthieno[3,2-b]pyridine-2-carboxamido)propanoate] | 5.86 ×10⁻⁶ cm/s
CCOC(=O)[C@H](N)CNC(=O)c1cc2nccc(C)c2s1 [Compound 2d, Ethyl (R)-2-amino-3-(7-methylthieno[3,2-b]pyridine-2-carboxamido)propanoate] | 15.2 ×10⁻⁶ cm/s
Cc1ccnc2cc(C(=O)NC[C@@H](N)C(=O)OCCC(C)C)sc12 [Compound 2l, Isopentyl (R)-2-amino-3-(7-methylthieno[3,2-b]pyridine-2-carboxamido)propanoate] | 6.5 ×10⁻⁶ cm/s
COCCOC(=O)[C@H](N)CNC(=O)c1cc2nccc(C)c2s1 [Compound 2k, 2-Methoxyethyl (R)-2-amino-3-(7-methylthieno[3,2-b]pyridine-2-carboxamido)propanoate] | 4.77 ×10⁻⁶ cm/s
Cc1ccnc2cc(C(=O)NC[C@@H](N)C(=O)OCC(C)C)sc12 [Compound 2i, Isobutyl (R)-2-amino-3-(7-methylthieno[3,2-b]pyridine-2-carboxamido)propanoate] | 8.19 ×10⁻⁶ cm/s
COC(=O)[C@H](N)CNC(=O)c1cc2nccc(C(F)F)c2s1 [Compound 2a, Methyl (R)-2-amino-3-(7-(difluoromethyl)thieno[3,2-b]pyridine-2-carboxamido)propanoate] | 8.36 ×10⁻⁶ cm/s
Cc1ccnc2cc(C(=O)NC[C@@H](N)C(=O)OC3CC3)sc12 [Compound 2g, Cyclopropyl (R)-2-amino-3-(7-methylthieno[3,2-b]pyridine-2-carboxamido)propanoate] | 7.11 ×10⁻⁶ cm/s
Cc1ccnc2cc(C(=O)NC[C@@H](N)C(=O)OCc3ccccc3)sc12 [Compound 2m, Benzyl (R)-2-amino-3-(7-methylthieno[3,2-b]pyridine-2-carboxamido)propanoate] | 8.68 ×10⁻⁶ cm/s

Further lines, results first:

Papp A→B at 60 min, 0.5 µM | SMILES
5.54 ×10⁻⁶ cm/s | COC(=O)[C@H](N)CNC(=O)c1cc2nccc(OC)c2s1 [Compound 2r, Methyl (R)-2-amino-3-(7-methoxythieno[3,2-b]pyridine-2-carboxamido)propanoate]
15.5 ×10⁻⁶ cm/s | COC(=O)[C@H](N)CNC(=O)c1cc2ncc(F)c(C)c2s1 [Compound 2x, Methyl (R)-2-amino-3-(6-fluoro-7-methyl-thieno[3,2-b]pyridine-2-carboxamido)propanoate]
4.81 ×10⁻⁶ cm/s | COC(=O)[C@H](N)CNC(=O)c1cc2nccc(OC(C)C)c2s1 [Compound 2t, Methyl (R)-2-amino-3-(7-isopropoxythieno[3,2-b]pyridine-2-carboxamido)propanoate]
1.16 ×10⁻⁶ cm/s | COC(=O)[C@H](N)CNC(=O)c1cc2nccc(CO)c2s1 [Compound 2v, Methyl (R)-2-amino-3-(7-(hydroxymethyl)thieno[3,2-b]pyridine-2-carboxamido) propanoate]
12.3 ×10⁻⁶ cm/s | COC(=O)[C@H](N)CNC(=O)c1cc2nccc(C(F)(F)F)c2s1 [Compound 2s, Methyl (R)-2-amino-3-(7-(trifluoromethyl)thieno[3,2-b]pyridine-2-carboxamido)propanoate]
4.19 ×10⁻⁶ cm/s | COC(=O)[C@H](N)CNC(=O)c1cc2nccc(CF)c2s1 [Compound 2w, Methyl (R)-2-amino-3-(7-(fluoromethyl)thieno[3,2-b]pyridine-2-carboxamido)propanoate]
7.08 ×10⁻⁶ cm/s | COC(=O)[C@H](N)CNC(=O)c1cc2ncc(C)c(C)c2s1 [Compound 2y, Methyl (R)-2-amino-3-(6,7-dimethylthieno[3,2-b]pyridine-2-carboxamido)propanoate]
0.81 ×10⁻⁶ cm/s | Cc1ccnc2cc(C(=O)NC[C@@H](N)C(=O)OCC(=O)N3CCCC3)sc12 [Compound 2p, 2-Oxo-2-(pyrrolidin-1-yl)ethyl (R)-2-amino-3-(7-methylthieno[3,2-b]pyridine-2-carboxamido)propanoate]
1.97 ×10⁻⁶ cm/s | CCc1ccccc1-c1ccnc2cc(C(=O)NC[C@@H](N)C(=O)OC)sc12 [Compound 2q, Methyl (R)-2-amino-3-(7-(2-ethylphenyl)thieno[3,2-b]pyridine-2-carboxamido)propanoate]

Test system: MDR1-MDCKII cells
Assay: MDR1-MDCKII permeability assay Papp(AB)
Type: in vitro ADME
Details: parent compounds; 0.5 μM; A to B; 60-minute incubation at 37° C.; pH 7.4
Method: as §1, §2, §3, §4, §5, §6, §7, §8, §9

Permeability Papp (AB) | SMILES
BLOQ | Cc1ccnc2cc(C(=O)NC[C@@H](N)C(=O)O)sc12 [Compound 1c, (R)-2-amino-3-(7-methylthieno[3,2-b]pyridine-2-carboxamido)propanoic acid]
BLOQ | COc1ccnc2cc(C(=O)NC[C@@H](N)C(=O)O)sc12 [Compound 1e, (R)-2-amino-3-(7-methoxythieno[3,2-b]pyridine-2-carboxamido)propanoic acid]
BLOQ | N[C@H](CNC(=O)c1cc2nccc(C3CC3)c2s1)C(=O)O [Compound 1b, (R)-2-amino-3-(7-cyclopropylthieno[3,2-b]pyridine-2-carboxamido) propanoic acid]
BLOQ | CC(C)Oc1ccnc2cc(C(=O)NC[C@@H](N)C(=O)O)sc12 [Compound 1g, (R)-2-amino-3-(7-isopropoxythieno[3,2-b]pyridine-2-carboxamido)propanoic acid]
BLOQ | CCc1ccccc1-c1ccnc2cc(C(=O)NC[C@@H](N)C(=O)O)sc12 [Compound 1d, (R)-2-amino-3-(7-(2-ethylphenyl)thieno[3,2-b]pyridine-2-carboxamido)propanoic acid]
BLOQ | N[C@H](CNC(=O)c1cc2nccc(C(F)F)c2s1)C(=O)O [Compound 1a, (R)-2-amino-3-(7-(difluoromethyl)thieno[3,2-b]pyridine-2-carboxamido)propanoic acid]

Test system: not listed separately
Assay: In vivo exposure (plasma and brain) after intravenous bolus injection
Details: compound quantified 1h; dose 2 mg/kg intravenous bolus; male Sprague Dawley rats
Method: Brain disposition of test compound was evaluated in male Sprague Dawley rats (standard body weight range). Briefly, discrete (nominal dose: 2 mg/kg, 2 ml/kg) or cassetted (nominal dose: 1 mg/kg/compound, 2 ml/kg) test compounds were administered by intravenous bolus injection (formulated in 10% hydroxypropyl-β-cyclodextrin or 10-20% Captisol, pH=3).
Serial blood samples were collected from a lateral tail vein at designated time points (n=3 per time point) then rats were put under deep isofluorane induced anaesthesia prior to removal of brains (n=3 per time point). Blood samples were stabilized against further metabolism ex vivo by addition of an esterase inhibitor (100 μM diisopropyl fluorophosphate). […]
Seven calibration standards and three QC samples were prepared in plasma and brain homogenate, respectively, in the concentration range 10-10000 ng/mL. […] Study samples with expected concentration above upper limit of quantification were diluted with blank matrix. […]
Samples were analyzed using an AB Sciex API4000 triple quadrupole (TQ) mass spectrometer operated in positive and negative electrospray ionization and MS/MS mode (multiple reaction monitoring, MRM). […] Quantification was performed by linear regression, 1/x2 weighting.
Concentrations of prodrug and drug in plasma and brain were quantified against matrix matched calibration standards.

Total Brain concentration (ng/mL) 30 min post dose | SMILES
BLOQ | COC(=O)[C@H](N)CNC(=O)c1cc2nccc(Br)c2s1 [Compound 2u, Methyl (R)-2-amino-3-(7-bromothieno[3,2-b]pyridine-2-carboxamido)propanoate]
